Measurements published in patent publication US4537899A, “Antiviral acylated 1,2,4-triazole derivatives” (BIOGAL Gyogyszergyar, priority 1982, dated 1985).
Values after ≈ are worked out from the molar mass of the structure shown.

Tested on: not listed separately
Experiment: in vitro
Assay type: cell-based
Conditions: human, hela cells
Protocol: The antiviral testing of the compounds was carried out in two steps. First the dose-response curve of cytotoxicity was plotted, then the antiviral activity was assayed in cell cultures containing nontoxic amounts of the compound.
1. The cytotoxicity of the compounds was assayed in HeLa and RK-13 cell cultures by quantitating the protein content of the cells [S. Horvath: Cytotoxicity of drugs and diverse chemical agents to cell cultures, Toxicology, 16, 59 (1980)]. From the data of the dose-response curve the 50 percent cytotoxic concentration of the compounds was determined (CT50), i.e. the concentration inhibiting cell proliferation by 50 percent. Similarly from the data of the dose-response curve the highest concentration of the compounds where cell proliferation compared to the control is not inhibited at all, can be determined, too (0 percent cytotoxic concentration, CT0). To simplify matters, in the Table the logarithm of these values is summarized (i.e. log CT0 =1 representing a concentration of 10 μg/ml).

Compound	CC50	MNTC
CSc1n[nH]c(NC(=O)c2ccccc2Br)n1 [Example 53, 3-methylthio-5-(2-bromo-benzoyl-amino)-1H-1,2,4-triazole]	126 µg/mL (≈ 402 µM)	39.8 µg/mL
CSc1n[nH]c(NC(=O)c2ccccc2C)n1 [Example 47, 3-methylthio-5-(2-methyl-benzoyl-amino)-1H-1,2,4-triazole]	100 µg/mL (≈ 403 µM)	39.8 µg/mL
CCSc1n[nH]c(NC(=O)c2ccccc2C)n1 [Example 73, 3-ethylthio-5-(2-methyl-benzoyl-amino)-1H-1,2,4-triazole]	50.1 µg/mL (≈ 191 µM)	7.94 µg/mL
CSc1n[nH]c(NC(=O)c2ccccc2[N+](=O)[O-])n1 [Example 61, 3-methylthio-5-(2-nitro-benzoyl-amino)-1H-1,2,4-triazole]	39.8 µg/mL (≈ 143 µM)	10 µg/mL
CSc1n[nH]c(NC(=O)c2ccccc2Cl)n1 [Example 63, 3-methylthio-5-(2-chloro-benzoyl-amino)-1H-1,2,4-triazole]	50.1 µg/mL (≈ 187 µM)	7.94 µg/mL
CSc1n[nH]c(NC(=O)c2ccccc2SC)n1 [Example 70, 3-methylthio-5-(2-methylthio-benzoyl-amino)-1H-1,2,4-triazole]	79.4 µg/mL (≈ 283 µM)	20 µg/mL

Same assay, conditions: rabbit, rk-13 cells

Compound	CC50	MNTC
CSc1n[nH]c(NC(=O)c2ccccc2Br)n1 [Example 53, 3-methylthio-5-(2-bromo-benzoyl-amino)-1H-1,2,4-triazole]	79.4 µg/mL (≈ 254 µM)	25.1 µg/mL
CSc1n[nH]c(NC(=O)c2ccccc2C)n1 [Example 47, 3-methylthio-5-(2-methyl-benzoyl-amino)-1H-1,2,4-triazole]	79.4 µg/mL (≈ 320 µM)	12.6 µg/mL
CSc1n[nH]c(NC(=O)c2ccccc2[N+](=O)[O-])n1 [Example 61, 3-methylthio-5-(2-nitro-benzoyl-amino)-1H-1,2,4-triazole]	63.1 µg/mL (≈ 226 µM)	15.8 µg/mL
CSc1n[nH]c(NC(=O)c2ccccc2Cl)n1 [Example 63, 3-methylthio-5-(2-chloro-benzoyl-amino)-1H-1,2,4-triazole]	79.4 µg/mL (≈ 296 µM)	15.8 µg/mL
CSc1n[nH]c(NC(=O)c2ccccc2SC)n1 [Example 70, 3-methylthio-5-(2-methylthio-benzoyl-amino)-1H-1,2,4-triazole]	50.1 µg/mL (≈ 179 µM)	15.8 µg/mL

Tested on: Rubeola virus
Experiment: Antiviral effect against Rubeola virus at concentrations of CT0 (reduction of TCID50 virus titer)
Assay type: cell-based, Rubeola virus (strain Judith)
Conditions: RK-13 cell cultures, log TCID50 difference of control and test compound

Compound	Δlog TCID50
CSc1n[nH]c(NC(=O)c2ccccc2Br)n1 [Example 53, 3-methylthio-5-(2-bromo-benzoyl-amino)-1H-1,2,4-triazole]	≥ 6.8
CSc1n[nH]c(NC(=O)c2ccccc2C)n1 [Example 47, 3-methylthio-5-(2-methyl-benzoyl-amino)-1H-1,2,4-triazole]	≥ 6.8
CCSc1n[nH]c(NC(=O)c2ccccc2C)n1 [Example 73, 3-ethylthio-5-(2-methyl-benzoyl-amino)-1H-1,2,4-triazole]	≥ 6.0
CSc1n[nH]c(NC(=O)c2ccccc2[N+](=O)[O-])n1 [Example 61, 3-methylthio-5-(2-nitro-benzoyl-amino)-1H-1,2,4-triazole]	3.0
CSc1n[nH]c(NC(=O)c2ccccc2Cl)n1 [Example 63, 3-methylthio-5-(2-chloro-benzoyl-amino)-1H-1,2,4-triazole]	≥ 5.3
CSc1n[nH]c(NC(=O)c2ccccc2SC)n1 [Example 70, 3-methylthio-5-(2-methylthio-benzoyl-amino)-1H-1,2,4-triazole]	≥ 5.3

Tested on: not listed separately
Experiment: Oral toxicity (LD50) in rats
Conditions: rat, in vivo

Compound	LD50
CSc1n[nH]c(NC(=O)c2ccccc2C)n1 [Example 47, 3-methylthio-5-(2-methyl-benzoyl-amino)-1H-1,2,4-triazole]	3200 mg/kg
